{"source": "patent US20050130894A1", "about": "“Process for the synchronization of ovulation for timed breeding without heat detection” (priority 2003, published 2005)", "assay_type_in_all_cases": "in vivo, swine", "key": {"mature postpartum sows": {"test_system": "mature postpartum sows", "experiment": "Intravulvar injection at estrus detection in mature postpartum sows, AI breeding (Example 2)", "method": "Sows were assigned randomly in blocks of two to either control or to be injected intravulvar with 50 mcg of deslorelin in SAIB at the time of estrus detection for sows first detected in estrus in the a.m. and 12 hours later for those first detected in estrus in the p.m. Treated animals were bred AI upon detected estrus and again 24 hours later if still in estrus. Controls received a saline injection on first detected estrus behavior estrus detection and were bred according to the farm's normal procedures."}, "postpartum sows [1]": {"test_system": "postpartum sows", "experiment": "Single timed injection 96 hours post-weaning, single timed insemination without estrus detection (Example 3)", "conditions": "50 mcg in SAIB at 96 hours post-weaning", "method": "(§1) Approximately 170 postpartum sows were randomly divided into two equal groups comprised of controls and treated. Following weaning, the controls were detected for estrus and bred following the normal standard operating procedures for the farms on which they resided. The treated sows received a 50 mcg dose of deslorelin in SAIB at 96 hours post-weaning and were bred with a single insemination 28+/−2 hours later with no regard to estrus detection. The sows were examined for pregnancy by ultrasound at 21 days and slaughtered around 28 days post breeding. The entire reproductive tract was removed and corpora lutea and embryos were counted."}, "postpartum sows [2]": {"test_system": "postpartum sows", "experiment": "Litter size after deslorelin treatment in postpartum sows, three farm sites (Example 4)", "conditions": "regardless of estrus detection, Tables 3-5", "excerpt": "Postpartum sows were randomly distributed into three different groups comprised of Controls, Treatment 1, and Treatment 2, with the exception of Site 3, which was divided into two groups, Control and Treatment 2. Control sows were detected for estrus following weaning, and bred following the normal standard operating procedures for the farms on which they resided. Treatment 1 sows were detected for estrus following weaning, and received a 50 mcg dose of deslorelin in the morning when standing and were bred by AI 4 hours later and again at 24+/−2 hours later. Treatment 2 sows received a 50 mcg dose of deslorelin in SAIB at 96 or 120 hours post-weaning and were bred with a single insemination 28+/−2 hours later with no regard to estrus detection."}, "postpartum sows [3]": {"test_system": "postpartum sows", "experiment": "Pregnancy rate after deslorelin treatment in sows, summary of data of Tables 2-5", "conditions": "Table 6", "method": "as §1, with “counted. Postpartum sows were randomly distributed into three different groups comprised of Controls, Treatment 1, and Treatment 2, with the exception of Site 3, which was divided into two groups, Control and Treatment 2. Control sows were detected for estrus following weaning, and bred following the normal standard operating procedures for the farms on which they resided. Treatment 1 sows were detected for estrus following weaning, and received a 50 mcg dose of deslorelin in the morning when standing and were bred by AI 4 hours later and again at 24+/−2 hours later. Treatment 2 sows received a 50 mcg dose of deslorelin in SAIB at 96 or 120 hours post-weaning and were bred with a single insemination 28+/−2 hours later with no regard to estrus detection. […]” for “counted.”"}}}
{"smiles": "CCNC(=O)[C@@H]1CCCN1C(=O)[C@H](CCCN=C(N)N)NC(=O)[C@H](CC(C)C)NC(=O)[C@@H](Cc1c[nH]c2ccccc12)NC(=O)[C@H](Cc1ccc(O)cc1)NC(=O)[C@H](CO)NC(=O)[C@H](Cc1c[nH]c2ccccc12)NC(=O)[C@H](Cc1cnc[nH]1)NC(=O)[C@@H]1CCC(=O)N1", "note": "[Deslorelin, deslorelin]", "values": [{"measurement": "Pregnancy Rate", "setting": "mature postpartum sows; 50 μg deslorelin acetate (1 ml) intravulvar at first estrus detection, AI, AI again if in estrus next day, n = 75", "result": 91, "unit": "%"}, {"measurement": "Length of Estrus", "setting": "mature postpartum sows; 50 μg deslorelin acetate (1 ml) intravulvar at first estrus detection, n = 69", "result": 40.81, "unit": "h"}, {"measurement": "Live piglet number, Deslorelin versus Saline sows (difference)", "setting": "mature postpartum sows; 50 μg intravulvar at first estrus detection, live piglets born per litter, greater than control", "result": "Live piglet number 0.6> in Deslorelin versus Saline sows."}, {"measurement": "Embryo Survival", "setting": "postpartum sows [1]", "result": 64, "unit": "%"}, {"measurement": "Sows Pregnant", "setting": "postpartum sows [1]; single insemination 28+/-2 hours later, 84 in group", "result": 60}, {"measurement": "Pregnancy Rate", "setting": "postpartum sows [1]; single timed insemination, no estrus detection", "result": 71, "unit": "%"}, {"measurement": "Litter sizes (in words)", "setting": "postpartum sows [2]", "result": "normal litter sizes"}, {"measurement": "Pregnancy rates (in words)", "setting": "postpartum sows [3]", "result": "normal pregnancy rates were obtained"}]}
